In ChEMBL document CHEMBL1681728, “An automated, polymer-assisted strategy for the preparation of urea and thiourea derivatives of 15-membered azalides as potential antimalarial chemotherapeutics” (Bioorg Med Chem, 2011):

Assays:
Assay type in all cases: functional, organism-based
Plasmodium falciparum [1] = test: Antimalarial activity against multidrug-resistant Plasmodium falciparum TM91C235 assessed as inhibition of [3H]hypoxanthine incorporation after 96 hrs by microtiter plate scintillation counting
Plasmodium falciparum [2] = test: Antimalarial activity against chloroquine-sensitive Plasmodium falciparum D6 assessed as inhibition of [3H]hypoxanthine incorporation after 96 hrs by microtiter plate scintillation counting
Plasmodium falciparum [3] = test: Antimalarial activity against chloroquine-,pyrimethamine-resistant Plasmodium falciparum W2 assessed as inhibition of [3H]hypoxanthine incorporation after 96 hrs by microtiter plate scintillation counting

## CC[C@H]1OC(=O)[C@H](C)[C@@H](O[C@H]2C[C@@](C)(OC)[C@@H](O)[C@H](C)O2)[C@H](C)[C@@H](O[C@@H]2O[C@H](C)C[C@H](N(C)C)[C@H]2O)[C@](C)(O)C[C@@H](C)CN(CCCNC(=S)NCCCN(CC)CC)[C@H](C)[C@@H](O)[C@]1(C)O
Plasmodium falciparum [1]
  IC50: 12400 nM
Plasmodium falciparum [2]
  IC50: 794 nM
Plasmodium falciparum [3]
  IC50: 3130 nM

## CC[C@H]1OC(=O)[C@H](C)[C@@H](O[C@H]2C[C@@](C)(OC)[C@@H](O)[C@H](C)O2)[C@H](C)[C@@H](O[C@@H]2O[C@H](C)C[C@H](N(C)C)[C@H]2O)[C@](C)(O)C[C@@H](C)CN(CCCNC(=O)Nc2ccc3c(c2)OCO3)[C@H](C)[C@@H](O)[C@]1(C)O
Plasmodium falciparum [1]
  IC50: 265 nM
Plasmodium falciparum [2]
  IC50: 835 nM
Plasmodium falciparum [3]
  IC50: 111 nM

## CC[C@H]1OC(=O)[C@H](C)[C@@H](O[C@H]2C[C@@](C)(OC)[C@@H](O)[C@H](C)O2)[C@H](C)[C@@H](O[C@@H]2O[C@H](C)C[C@H](N(C)C)[C@H]2O)[C@](C)(O)C[C@@H](C)CN(CCCNC(=S)Nc2ccc(C)cc2)[C@H](C)[C@@H](O)[C@]1(C)O
Plasmodium falciparum [1]
  IC50: 164 nM
Plasmodium falciparum [2]
  IC50: 330 nM
Plasmodium falciparum [3]
  IC50: 71.3 nM

## CCc1ccc(NC(=O)NCCCN2C[C@H](C)C[C@@](C)(O)[C@H](O[C@@H]3O[C@H](C)C[C@H](N(C)C)[C@H]3O)[C@@H](C)[C@H](O[C@H]3C[C@@](C)(OC)[C@@H](O)[C@H](C)O3)[C@@H](C)C(=O)O[C@H](CC)[C@@](C)(O)[C@H](O)[C@H]2C)cc1
Plasmodium falciparum [1]
  IC50: 99.3 nM
Plasmodium falciparum [2]
  IC50: 226 nM
Plasmodium falciparum [3]
  IC50: 73.8 nM

## CC[C@H]1OC(=O)[C@H](C)[C@@H](O[C@H]2C[C@@](C)(OC)[C@@H](O)[C@H](C)O2)[C@H](C)[C@@H](O[C@@H]2O[C@H](C)C[C@H](N(C)C)[C@H]2O)[C@](C)(O)C[C@@H](C)CN(CCCNC(=S)NCCN2CCOCC2)[C@H](C)[C@@H](O)[C@]1(C)O
Plasmodium falciparum [1]
  IC50: 3320 nM
Plasmodium falciparum [2]
  IC50: 12400 nM
Plasmodium falciparum [3]
  IC50: 2090 nM

## CC[C@H]1OC(=O)[C@H](C)[C@@H](O[C@H]2C[C@@](C)(OC)[C@@H](O)[C@H](C)O2)[C@H](C)[C@@H](O[C@@H]2O[C@H](C)C[C@H](N(C)C)[C@H]2O)[C@](C)(O)C[C@@H](C)CN(CCCNC(=S)Nc2ccccc2F)[C@H](C)[C@@H](O)[C@]1(C)O
Plasmodium falciparum [1]
  IC50: 122 nM
Plasmodium falciparum [2]
  IC50: 987 nM
Plasmodium falciparum [3]
  IC50: 400 nM

## CC[C@H]1OC(=O)[C@H](C)[C@@H](O[C@H]2C[C@@](C)(OC)[C@@H](O)[C@H](C)O2)[C@H](C)[C@@H](O[C@@H]2O[C@H](C)C[C@H](N(C)C)[C@H]2O)[C@](C)(O)C[C@@H](C)CN(CCCNC(=O)Nc2cccc(F)c2)[C@H](C)[C@@H](O)[C@]1(C)O
Plasmodium falciparum [1]
  IC50: 164 nM
Plasmodium falciparum [2]
  IC50: 580 nM
Plasmodium falciparum [3]
  IC50: 285 nM

## CC[C@H]1OC(=O)[C@H](C)[C@@H](O[C@H]2C[C@@](C)(OC)[C@@H](O)[C@H](C)O2)[C@H](C)[C@@H](O[C@@H]2O[C@H](C)C[C@H](N(C)C)[C@H]2O)[C@](C)(O)C[C@@H](C)CN(CCCNC(=S)NC(C)C)[C@H](C)[C@@H](O)[C@]1(C)O
Plasmodium falciparum [1]
  IC50: 428 nM
Plasmodium falciparum [2]
  IC50: 2610 nM
Plasmodium falciparum [3]
  IC50: 1300 nM

## CC[C@H]1OC(=O)[C@H](C)[C@@H](O[C@H]2C[C@@](C)(OC)[C@@H](O)[C@H](C)O2)[C@H](C)[C@@H](O[C@@H]2O[C@H](C)C[C@H](N(C)C)[C@H]2O)[C@](C)(O)C[C@@H](C)CN(CCCNC(=S)Nc2ccc(N(CC)CC)cc2)[C@H](C)[C@@H](O)[C@]1(C)O
Plasmodium falciparum [1]
  IC50: 298 nM
Plasmodium falciparum [2]
  IC50: 765 nM
Plasmodium falciparum [3]
  IC50: 684 nM

## CC[C@H]1OC(=O)[C@H](C)[C@@H](O[C@H]2C[C@@](C)(OC)[C@@H](O)[C@H](C)O2)[C@H](C)[C@@H](O[C@@H]2O[C@H](C)C[C@H](N(C)C)[C@H]2O)[C@](C)(O)C[C@@H](C)CN(CCCNC(=O)Nc2cccc(SC)c2)[C@H](C)[C@@H](O)[C@]1(C)O
Plasmodium falciparum [1]
  IC50: 137 nM
Plasmodium falciparum [2]
  IC50: 332 nM
Plasmodium falciparum [3]
  IC50: 73.9 nM

## CC[C@H]1OC(=O)[C@H](C)[C@@H](O[C@H]2C[C@@](C)(OC)[C@@H](O)[C@H](C)O2)[C@H](C)[C@@H](O[C@@H]2O[C@H](C)C[C@H](N(C)C)[C@H]2O)[C@](C)(O)C[C@@H](C)CN(CCCNC(=O)Nc2ccc(C(C)=O)cc2)[C@H](C)[C@@H](O)[C@]1(C)O
Plasmodium falciparum [1]
  IC50: 398 nM
Plasmodium falciparum [2]
  IC50: 1730 nM
Plasmodium falciparum [3]
  IC50: 709 nM

## CC[C@H]1OC(=O)[C@H](C)[C@@H](O[C@H]2C[C@@](C)(OC)[C@@H](O)[C@H](C)O2)[C@H](C)[C@@H](O[C@@H]2O[C@H](C)C[C@H](N(C)C)[C@H]2O)[C@](C)(O)C[C@@H](C)CN(CCCNC(=O)Nc2ccc(OC)cc2)[C@H](C)[C@@H](O)[C@]1(C)O
Plasmodium falciparum [1]
  IC50: 442 nM
Plasmodium falciparum [2]
  IC50: 1970 nM
Plasmodium falciparum [3]
  IC50: 256 nM

## CC[C@H]1OC(=O)[C@H](C)[C@@H](O[C@H]2C[C@@](C)(OC)[C@@H](O)[C@H](C)O2)[C@H](C)[C@@H](O[C@@H]2O[C@H](C)C[C@H](N(C)C)[C@H]2O)[C@](C)(O)C[C@@H](C)CN(CCCNC(=O)Nc2ccc(C#N)cc2)[C@H](C)[C@@H](O)[C@]1(C)O
Plasmodium falciparum [1]
  IC50: 206 nM
Plasmodium falciparum [2]
  IC50: 386 nM
Plasmodium falciparum [3]
  IC50: 98.3 nM

## CC[C@H]1OC(=O)[C@H](C)[C@@H](O[C@H]2C[C@@](C)(OC)[C@@H](O)[C@H](C)O2)[C@H](C)[C@@H](O[C@@H]2O[C@H](C)C[C@H](N(C)C)[C@H]2O)[C@](C)(O)C[C@@H](C)CN(CCCNC(=O)NC(C)(C)CC(C)(C)C)[C@H](C)[C@@H](O)[C@]1(C)O
Plasmodium falciparum [1]
  IC50: 183 nM
Plasmodium falciparum [2]
  IC50: 269 nM
Plasmodium falciparum [3]
  IC50: 78.4 nM

## CC[C@H]1OC(=O)[C@H](C)[C@@H](O[C@H]2C[C@@](C)(OC)[C@@H](O)[C@H](C)O2)[C@H](C)[C@@H](O[C@@H]2O[C@H](C)C[C@H](N(C)C)[C@H]2O)[C@](C)(O)C[C@@H](C)CN(CCCNC(=S)NCc2ccc3c(c2)OCO3)[C@H](C)[C@@H](O)[C@]1(C)O
Plasmodium falciparum [1]
  IC50: 216 nM
Plasmodium falciparum [2]
  IC50: 319 nM
Plasmodium falciparum [3]
  IC50: 137 nM

## CC[C@H]1OC(=O)[C@H](C)[C@@H](O[C@H]2C[C@@](C)(OC)[C@@H](O)[C@H](C)O2)[C@H](C)[C@@H](O[C@@H]2O[C@H](C)C[C@H](N(C)C)[C@H]2O)[C@](C)(O)C[C@@H](C)CN(CCCNC(=S)NCCCSC)[C@H](C)[C@@H](O)[C@]1(C)O
Plasmodium falciparum [1]
  IC50: 354 nM
Plasmodium falciparum [2]
  IC50: 898 nM
Plasmodium falciparum [3]
  IC50: 202 nM

## CC[C@H]1OC(=O)[C@H](C)[C@@H](O[C@H]2C[C@@](C)(OC)[C@@H](O)[C@H](C)O2)[C@H](C)[C@@H](O[C@@H]2O[C@H](C)C[C@H](N(C)C)[C@H]2O)[C@](C)(O)C[C@@H](C)CN(CCCNC(=S)Nc2ccc(S(=O)(=O)N3CCCCC3)cc2)[C@H](C)[C@@H](O)[C@]1(C)O
Plasmodium falciparum [1]
  IC50: 68 nM
Plasmodium falciparum [2]
  IC50: 174 nM
Plasmodium falciparum [3]
  IC50: 53 nM

## CC[C@H]1OC(=O)[C@H](C)[C@@H](O[C@H]2C[C@@](C)(OC)[C@@H](O)[C@H](C)O2)[C@H](C)[C@@H](O[C@@H]2O[C@H](C)C[C@H](N(C)C)[C@H]2O)[C@](C)(O)C[C@@H](C)CN(CCCNC(=S)NCC2CC3CCC2C3)[C@H](C)[C@@H](O)[C@]1(C)O (some centres not stated)
Plasmodium falciparum [1]
  IC50: 102 nM
Plasmodium falciparum [2]
  IC50: 249 nM
Plasmodium falciparum [3]
  IC50: 46.5 nM

## CC[C@H]1OC(=O)[C@H](C)[C@@H](O[C@H]2C[C@@](C)(OC)[C@@H](O)[C@H](C)O2)[C@H](C)[C@@H](O[C@@H]2O[C@H](C)C[C@H](N(C)C)[C@H]2O)[C@](C)(O)C[C@@H](C)CN(CCCNC(=S)NCCCN2CCOCC2)[C@H](C)[C@@H](O)[C@]1(C)O
Plasmodium falciparum [1]
  IC50: 5090 nM
Plasmodium falciparum [2]
  IC50: 7010 nM
Plasmodium falciparum [3]
  IC50: 1270 nM
